Laboratory results taken from EP4740933A1, “CLEANING COMPOSITION AND USE THEREOF” (Suzhou Oulit Biopharm Co., Ltd., priority 2023, dated 2025).
Values joined by “and” are separate entries in the source; they are usually repeats but may differ in a detail not shown here. Equal values may be shown once. Read-outs that look alike come from different tables or passages of the source.

Assays:
[1] = system: Reconstructed Human Epidermis; assay: In vitro skin irritation: reconstructed human epidermis test (OECD TG 439); type: cell-based; set-up: Viability Mean: concentration or dose not given beside the values
Bovine Corneal = assay: Eye irritation: Bovine Corneal Opacity and Permeability Test (OECD TG 437); details: positive control, no test concentration printed (/)
Excerpt: Basis: Bovine Corneal Opacity and Permeability Test, OECD TG 437 (2020).

[2] = Foaming test, modified Ross-Miles method (GB/T7462-1994); type: physicochemical; details: 2.5 g/L, 50 ± 0.5 °C
Description: Conditions: test solution concentration: 2.5 g/L; test temperature: 50 ± 0.5 °C; test water: soft water/hard water.

Row | Foam volume at 30 s ([2]; soft water) [mL] | Foam volume at 3 min ([2]; soft water) [mL] | Foam volume at 5 min ([2]; soft water) [mL] | Compound | IL-1α content [1] [pg/mL] | Viability Mean [1] [%] | other results
1 |  |  |  | CCCCCCCCCCCC(=O)N[C@@H](C)C(=O)O.N=C(N)NCCC[C@H](N)C(=O)O [LA-Arg] | 3.5 ± 0.38 | 97.40 | 
2 |  |  |  | CCCCCCCCCCCC(=O)NC(C)C(=O)[O-].[Na+] (stereo not shown) [LA-NaOH] | 3.88 ± 5.28 | 86.99 | 
3 |  |  |  | CCCCCCCCCCCC(=O)N[C@@H](C)C(=O)O [Lauroyl alanine (LA), Lauroyl alanine] | 2.07 ± 0.59 | 95.52 | 
4 |  |  |  | CCCCCCCCCCCCOS(=O)(=O)[O-].[Na+] [Positive control (PC)] | 89.45 ± 10.06 | 4.03 | 
5 |  |  |  | CCO [Positive control (absolute ethanol), absolute ethanol] |  |  | In vitro irritancy score (IVIS) (Bovine Corneal): 32.3545
6 |  |  |  | CCCCCCCCCCCCOS(=O)(=O)[O-].[Na+] [Sodium dodecyl sulfate (K12), Sodium dodecyl sulfate] | 96.26 ± 3.21 |  | Viability Mean ([1]; human): 40.79%
7 | 310 | 250 | 210 | Sodium laureth sulfate [Sodium laureth sulfate (AES)] | 20.59 ± 5.27 | 57.12 | 
8 | 430 | 390 | 360 | potassium cocoyl glycinate [GCK30] |  |  | 
9 | 330 | 200 | 140 | sodium cocoyl alaninate [ACS30] |  |  | 
10 | 460 | 430 | 400 | sodium cocoyl glycinate [GC30] |  |  | 
11 | 310 | 260 | 230 | sodium cocoylmethyl taurate [CMT-35] |  |  | 

Row | Compound | Foam volume at 30 s ([2]; soft water) [mL] | Foam volume at 3 min ([2]; soft water) [mL] | Foam volume at 5 min ([2]; soft water) [mL] | IL-1α content [1] [pg/mL] | Viability Mean [1] [%] | other results
12 | Lauroyl alanine-arginine | 380 | 340 | 335 |  |  | Foam volume at 30 s ([2]; hard water): 570 mL and 580 mL; Foam volume at 3 min ([2]; hard water): 540 mL and 560 mL and 565 mL; Foam volume at 5 min ([2]; hard water): 530 mL and 545 mL and 550 mL
